Entries after “also recorded” stand apart in the source; their conditions may differ. Marks after values point to notes of the source that are not given here.
Columns and labels:
[1] = test system: CD3+HLA-DR+ lymphocytes in human PBMC; test: PHA-mediated induction of CD3+HLA-DR+ lymphocytes in human PBMC (Example 8); type: cell-based; settings: PHA 50 μg/ml, 24 hours
Description: (§1) Cells from 3-12 asthma patients were cultured 24 hours with 50 μg/ml PHA. PBMC evaluated by 2-color flow cytometry were gated for CD3+ and analyzed for CD3+CD25+ or CD3+HLA-DR+ as a percentage of the CD3+ population. Results are reported as stimulation indices (SI) calculated as the ratio of % CD3+CD25+ cells or % CD3+HLA-DR+ cells in fully-stimulated cultures to % CD3+CD25+ or % CD3+HLA-DR+ respectively in cells treated with PHA plus ASX, GB, or combinations thereof.

[2] = test system: CD3+CD25+ lymphocytes in human PBMC; test: PHA-mediated induction of CD3+CD25+ lymphocytes in human PBMC (Example 8); type: cell-based; settings: PHA 50 μg/ml, 24 hours
Description: as §1

[3] = Allergy symptoms in an allergy patient; type: in vivo, human
Description: Astaxanthin or astaxanthin plus a cetirizine together was administered to an allergy patient.

TNF-α = TNF-α expression by PHA-stimulated human PBMC, ELISA of supernatant; type: cell-based; settings: PHA 50 μg/ml, 24 hours; 10^−6 M
Description: PBMC (2×10^6/ml) from 2 donors were stimulated with 50 μg/ml, PHA; or with astaxanthin (10^−6 M); or with the ginkgolide BN52021 (GB) (10^−4 M); or with a combination of astaxanthin (10^−6 M) plus GB (10^−4 M); or with media. Cells were cultured 24 hours at 37° C., 5% CO2 and analyzed by ELISA for supernatant concentration of TNF-α. Each data point is the mean of triplicate samples.

PMA/I-treated human PBMC = test: Inflammation-associated T cell surface antigens (CD25, CD54) in PMA/I-treated human PBMC, two-color flow cytometry; type: cell-based
Description: In vitro studies indicate that astaxanthin suppresses expression of inflammation-associated T cell surface antigens in PMA/I-treated human PBMC. […]
Analysis of blood for representation by selected lymphocyte subpopulations was conducted by two-color flow cytometry.

[4] = test system: ovalbumin(OA)-induced asthma in guinea pigs; test: Ovalbumin-induced asthma in guinea pigs: inflammatory cells in BAL fluid; type: in vivo, guinea pig; settings: for Eosinophils / Macrophages / Neutrophils: BAL fluid 24 hours after OV challenge
Description: The effect combinations of vitamin C, astaxanthin, and ginkolide on asthma-associated disease parameters ovalbumin(OA)-induced asthma in guinea pigs was evaluated. Twenty-four hours following OA challenge, animals are sacrificed and numbers of inflammatory cells (eosinophils, neutrophils, macrophages) are measured in bronchoalveolar lavage (BAL) fluid; and cAMP and cGMP concentrations in the lung tissue. The experiments were carried out as follows. Male Hartley guinea pigs (250-350 g) were sensitized by intramuscular injections of 0.35 ml of a 5% (W/V) ovalbumin (OA)/saline solution into each thigh on days 1 and 4. Guinea pigs were ready for asthmatic challenge after 25 days of ovalbumin injection. Asthmatic challenge was carried out with ovalbumin aerosol, and bronchoalveolar lavage (BAL) was done 24 hours later. The numbers of eosinophils, neutrophils, and macrophages in the BAL fluid were counted. Twenty-four hours after the aerosol OA challenge, guinea pigs were killed by cervical dislocation and exsanguinated by severing the axillary arteries. Lungs were lavaged with 50 ml of DulBecco's phosphate-buffered saline (aliquots of 10 ml), which were aspirated after gentle chest massage. BAL fluid was centrifuged at 2200 rpm (1100×g) for 10 min, supernatant was aspirated, and pellets were resuspended in 5 ml 0.25% NaCl to lyse residual erythrocytes. This dispersion was centrifuged at 2200 rpm (1100×g) for 10 min, supernatant was aspirated, and pellets were resuspended 5 ml 0.9% NaCl. Total cell counts were done by hemocytometry using trypan blue stain. Slides were prepared on a Shandon Cytospin 2 (Pittsburgh, Pa.) at 300 rpm for 5 min, fixed and stained. Differential cell counts were done using standard morphologic criteria to classify cells as eosinophils, neutrophils, or macrophages, and the results were expressed in cell numbers. The dose-responsive effect of AX, EGb761, and vitamin C administered independently for suppression of asthma-associated parameters in allergen-induced, asthmatic guinea pigs was determined. Ibuprophen (IB) was used as the positive control. Concentration of inflammatory cells in bronchoalveolar lavage (BAL) fluid and levels of cAMP and cGMP in lung tissue were measured in guinea pigs 24 hours following challenge with OV. Data is reported as mean±SD of measurements taken in 6 animals per dosage cohort. *p<0.05 compared to corresponding values of OV antigen-challenged, drug-free control group. The dose-responsive effect of AX, EGb761, and vitamin C administered in combination for suppression of asthma-associated parameters in allergen-induced, asthmatic guinea pigs was determined. The combination of these three components was given each day for each guinea pig as a “cocktail”. Concentration of inflammatory cells in bronchoalveolar lavage (BAL) fluid and levels of cAMP and cGMP in lung tissue were measured in guinea pigs 24 hours following challenge with OV. Data is reported as mean±SD of measurements taken in 6 animals per dosage cohort. *p<0.05 compared to corresponding values of OV antigen-challenged, drug-free control group.

CC1=C(/C=C/C(C)=C/C=C/C(C)=C/C=C/C=C(C)/C=C/C=C(C)/C=C/C2=C(C)C(=O)[C@@H](O)CC2(C)C)C(C)(C)C[C@H](O)C1=O [astaxanthin, 3,3′-dihydroxy-4,4′-diketo-B-carotene]
CD3+HLA-DR+ Stimulation Index ([1]; 10^−4 M): 0.85 ± 0.18 | CD3+HLA-DR+ Stimulation Index ([1]; 10^−5 M): 0.79 ± 0.19 | CD3+HLA-DR+ Stimulation Index ([1]; 10^−6 M): 0.83 ± 0.23 | CD3+HLA-DR+ Stimulation Index ([1]; 10^−7 M): 0.71 ± 0.23 | CD3+HLA-DR+ Stimulation Index ([1]; 10^−8 M): 0.68 ± 0.16 | CD3+CD25+ Stimulation Index ([2]; 10^−4 M): 0.49 ± 0.09 | CD3+CD25+ Stimulation Index ([2]; 10^−5 M): 0.95 ± 0.06 | CD3+CD25+ Stimulation Index ([2]; 10^−6 M): 0.96 ± 0.10 | CD3+CD25+ Stimulation Index ([2]; 10^−7 M): 0.90 ± 0.05 | CD3+CD25+ Stimulation Index ([2]; 10^−8 M): 0.95 ± 0.05 | alleviation of allergy symptoms such as itching [3]: did not result in alleviation of allergy symptoms | TNF-alpha (TNF-α): 781.34 pg/mL | % CD3+CD54+ cells (PMA/I-treated human PBMC; Subject A, first column, 10^-6 M): 4.2% | % CD3+CD54+ cells (PMA/I-treated human PBMC; Subject A, first column, 10^-7 M): 8.4% | % CD3+CD54+ cells (PMA/I-treated human PBMC; Subject A, second column, 10^-6 M): 3.3% | % CD3+CD54+ cells (PMA/I-treated human PBMC; Subject A, second column, 10^-7 M): 10.6% | % CD3+CD54+ cells (PMA/I-treated human PBMC; Subject B, first column, 10^-6 M): 6.3% | % CD3+CD54+ cells (PMA/I-treated human PBMC; Subject B, first column, 10^-7 M): 16.2% | % CD3+CD54+ cells (PMA/I-treated human PBMC; Subject B, second column, 10^-6 M): 10.3% | % CD3+CD54+ cells (PMA/I-treated human PBMC; Subject B, second column, 10^-7 M): 21.9% | Eosinophils ([4]; 5 mg/kg): 5.0 ± 0.7 cell × 10^6/animal | Macrophages ([4]; 5 mg/kg): 9.6 ± 1.0 cell × 10^6/animal | Neutrophils ([4]; 5 mg/kg): 5.4 ± 0.8 cell × 10^5/animal | Eosinophils ([4]; 10 mg/kg): 4.6 ± 0.6 cell × 10^6/animal | Macrophages ([4]; 10 mg/kg): 8.0 ± 0.8 cell × 10^6/animal | Neutrophils ([4]; 10 mg/kg): 5.1 ± 0.6 cell × 10^5/animal | Eosinophils ([4]; 30 mg/kg): 3.1 ± 0.5* cell × 10^6/animal | Macrophages ([4]; 30 mg/kg): 3.7 ± 0.7* cell × 10^6/animal | Neutrophils ([4]; 30 mg/kg): 3.3 ± 0.8* cell × 10^5/animal | Eosinophils ([4]; 100 mg/kg): 2.4 ± 0.6* cell × 10^6/animal | Macrophages ([4]; 100 mg/kg): 2.70 ± 0.7* cell × 10^6/animal | Neutrophils ([4]; 100 mg/kg): 2.4 ± 0.5* cell × 10^5/animal | Eosinophils ([4]; 200 mg/kg): 2.3 ± 0.5* cell × 10^6/animal | Macrophages ([4]; 200 mg/kg): 2.6 ± 0.5* cell × 10^6/animal | Neutrophils ([4]; 200 mg/kg): 2.0 ± 0.4* cell × 10^5/animal | protection against OV-induced asthma ([4]; components used separately: 10 mg/kg AX, 200 mg/kg vit C, 10 mg/kg GB, listed as AX): failed to protect; also recorded: failed to reduce the severity of asthma

Source: US20060127505A1, “Anti-inflammatory formulations” (priority 2002, published 2006)
